Read-outs that look alike come from different tables or passages of the source.
How the values were obtained:
UGT1A4 = target: T1, UGT1A4 (Homo sapiens, UniProt P22310); experiment: Enzyme inhibition assay, UGT1A4
T1 sequence (P22310 29-534): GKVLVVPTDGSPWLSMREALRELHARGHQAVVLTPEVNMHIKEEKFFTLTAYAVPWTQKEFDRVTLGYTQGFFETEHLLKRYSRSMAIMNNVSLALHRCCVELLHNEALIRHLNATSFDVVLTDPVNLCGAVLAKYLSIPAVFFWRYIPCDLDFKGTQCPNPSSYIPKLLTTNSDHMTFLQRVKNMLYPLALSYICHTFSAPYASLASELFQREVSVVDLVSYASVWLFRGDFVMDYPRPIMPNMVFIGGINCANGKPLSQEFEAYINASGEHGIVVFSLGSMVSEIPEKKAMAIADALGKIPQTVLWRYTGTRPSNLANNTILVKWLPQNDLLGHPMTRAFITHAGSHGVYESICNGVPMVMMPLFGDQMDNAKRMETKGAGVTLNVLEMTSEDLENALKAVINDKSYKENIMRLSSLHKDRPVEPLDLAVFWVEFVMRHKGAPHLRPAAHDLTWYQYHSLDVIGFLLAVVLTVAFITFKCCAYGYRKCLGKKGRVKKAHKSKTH

UGT1A9 = target: T2, UGT1A9 (Homo sapiens, UniProt O60656); experiment: Enzyme inhibition assay, UGT1A9; format: in vitro ADME; set-up: from tissue; conditions: HLM; UGT1A9 mycophenolic acid glucuronidation
T2 sequence (O60656 26-530): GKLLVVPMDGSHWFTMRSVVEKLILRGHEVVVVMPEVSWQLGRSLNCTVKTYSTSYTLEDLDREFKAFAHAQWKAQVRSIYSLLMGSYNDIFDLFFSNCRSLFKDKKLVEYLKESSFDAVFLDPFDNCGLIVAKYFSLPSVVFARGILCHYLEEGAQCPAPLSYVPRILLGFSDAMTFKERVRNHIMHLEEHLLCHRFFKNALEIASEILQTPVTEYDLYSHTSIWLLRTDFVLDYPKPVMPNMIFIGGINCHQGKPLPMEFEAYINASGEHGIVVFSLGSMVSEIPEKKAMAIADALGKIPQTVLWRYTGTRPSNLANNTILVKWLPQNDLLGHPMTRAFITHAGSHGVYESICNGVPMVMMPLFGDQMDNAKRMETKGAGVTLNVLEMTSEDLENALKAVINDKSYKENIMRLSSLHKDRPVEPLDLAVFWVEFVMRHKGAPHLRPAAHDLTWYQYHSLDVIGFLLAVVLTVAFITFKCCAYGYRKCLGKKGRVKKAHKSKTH

CYP1A2 mRNA = system: CYP1A2 mRNA; set-up: method as in PMID 23965226; conditions: 10 μM DPV, colorectal tissue from three human donors; cited from earlier work
[1] = women, cited from earlier work; for Cmax: plasma, ref IPM 028
UGT1A3 = target: T3, UGT1A3 (Homo sapiens, UniProt P35503); experiment: Enzyme inhibition assay, UGT1A3; format: in vitro ADME; set-up: from tissue; conditions: HLM; UGT1A3 chenodeoxycholic acid 24 O-glucuronidation
T3 sequence (P35503 29-534): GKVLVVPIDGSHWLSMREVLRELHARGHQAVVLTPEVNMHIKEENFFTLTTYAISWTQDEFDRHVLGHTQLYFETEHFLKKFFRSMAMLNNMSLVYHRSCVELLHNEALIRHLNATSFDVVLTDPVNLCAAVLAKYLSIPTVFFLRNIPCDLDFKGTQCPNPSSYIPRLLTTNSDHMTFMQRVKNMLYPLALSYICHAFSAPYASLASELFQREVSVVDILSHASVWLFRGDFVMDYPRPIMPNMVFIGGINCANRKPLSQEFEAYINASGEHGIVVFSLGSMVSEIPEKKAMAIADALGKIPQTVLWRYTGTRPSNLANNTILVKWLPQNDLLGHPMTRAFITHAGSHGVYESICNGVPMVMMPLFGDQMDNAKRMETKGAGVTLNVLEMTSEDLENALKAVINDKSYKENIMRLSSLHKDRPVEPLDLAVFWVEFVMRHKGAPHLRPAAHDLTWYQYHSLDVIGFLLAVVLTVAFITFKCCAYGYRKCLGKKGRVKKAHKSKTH

CYP2B6 mRNA = system: CYP2B6 mRNA; set-up: method as in PMID 23965226; conditions: 10 μM DPV, colorectal tissue from three human donors; cited from earlier work
CYP1B1 = target: T4, CYP1B1 (Homo sapiens, UniProt Q16678); experiment: Enzyme inhibition assay, CYP1B1; format: in vitro ADME; conditions: Recombinant CYP1B1; 7-ethoxyresorufin O-deethylation
T4 construct: purchased Corning Inc

CYP2B6 = target: T5, CYP2B6 (Homo sapiens, UniProt P20813); experiment: Enzyme inhibition assay, CYP2B6; format: in vitro ADME
T5 construct: tissue Xenotech LLC; host or cells: human liver microsomes, mixed-gender 50 donor pool

UGT1A8 = target: T6, UGT1A8 (Homo sapiens, UniProt Q9HAW9); experiment: Enzyme inhibition assay, UGT1A8
T6 sequence (Q9HAW9 26-530): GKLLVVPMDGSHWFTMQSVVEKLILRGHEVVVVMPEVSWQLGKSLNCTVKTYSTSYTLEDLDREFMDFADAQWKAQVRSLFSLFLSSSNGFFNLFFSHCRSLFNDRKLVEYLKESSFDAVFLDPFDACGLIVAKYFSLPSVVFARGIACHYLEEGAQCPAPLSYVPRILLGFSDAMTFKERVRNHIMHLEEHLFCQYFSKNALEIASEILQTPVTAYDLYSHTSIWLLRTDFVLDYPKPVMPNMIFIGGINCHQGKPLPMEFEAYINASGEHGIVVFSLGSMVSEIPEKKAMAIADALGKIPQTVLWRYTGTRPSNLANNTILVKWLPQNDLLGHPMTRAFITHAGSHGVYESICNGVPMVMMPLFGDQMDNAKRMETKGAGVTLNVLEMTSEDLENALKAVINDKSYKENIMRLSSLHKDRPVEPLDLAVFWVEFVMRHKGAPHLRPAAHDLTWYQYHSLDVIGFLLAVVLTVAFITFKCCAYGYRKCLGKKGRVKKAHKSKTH

CYP2C8 = target: T7, CYP2C8 (Homo sapiens, UniProt P10632); experiment: Enzyme inhibition assay, CYP2C8; format: in vitro ADME
T7 construct: tissue Xenotech LLC; host or cells: human liver microsomes, mixed-gender 50 donor pool

CYP2C19 = CYP2C19 (Homo sapiens, UniProt P33261); experiment: Enzyme inhibition assay, CYP2C19
CYP2C19, sequence (P33261 whole entry): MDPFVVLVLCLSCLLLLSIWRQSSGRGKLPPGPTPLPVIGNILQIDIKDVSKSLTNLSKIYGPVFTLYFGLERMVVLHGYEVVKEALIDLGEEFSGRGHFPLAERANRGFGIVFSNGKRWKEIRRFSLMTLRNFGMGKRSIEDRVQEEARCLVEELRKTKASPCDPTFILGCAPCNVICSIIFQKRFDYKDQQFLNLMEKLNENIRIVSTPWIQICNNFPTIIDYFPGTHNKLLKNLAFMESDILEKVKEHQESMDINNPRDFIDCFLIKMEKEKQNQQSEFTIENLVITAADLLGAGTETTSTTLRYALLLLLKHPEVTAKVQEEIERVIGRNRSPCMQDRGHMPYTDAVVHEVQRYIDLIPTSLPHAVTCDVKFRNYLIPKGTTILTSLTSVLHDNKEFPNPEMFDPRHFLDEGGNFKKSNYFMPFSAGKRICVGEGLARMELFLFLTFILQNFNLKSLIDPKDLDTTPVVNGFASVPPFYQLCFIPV

T4 sequence (Q16678 whole entry): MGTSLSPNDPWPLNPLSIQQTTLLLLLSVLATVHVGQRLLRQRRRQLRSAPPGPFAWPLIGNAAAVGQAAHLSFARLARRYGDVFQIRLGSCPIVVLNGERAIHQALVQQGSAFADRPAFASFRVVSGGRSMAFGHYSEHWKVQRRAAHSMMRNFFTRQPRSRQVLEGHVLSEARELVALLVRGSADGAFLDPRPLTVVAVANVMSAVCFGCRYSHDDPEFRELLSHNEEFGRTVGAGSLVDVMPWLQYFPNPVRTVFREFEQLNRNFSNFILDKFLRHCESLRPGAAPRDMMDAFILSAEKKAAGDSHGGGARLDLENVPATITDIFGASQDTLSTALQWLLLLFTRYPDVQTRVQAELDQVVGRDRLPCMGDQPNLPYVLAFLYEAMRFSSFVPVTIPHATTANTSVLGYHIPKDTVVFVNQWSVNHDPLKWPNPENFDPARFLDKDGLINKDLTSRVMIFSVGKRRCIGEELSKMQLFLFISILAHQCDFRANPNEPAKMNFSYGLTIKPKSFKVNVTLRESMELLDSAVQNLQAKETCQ
T7 sequence (P10632 whole entry): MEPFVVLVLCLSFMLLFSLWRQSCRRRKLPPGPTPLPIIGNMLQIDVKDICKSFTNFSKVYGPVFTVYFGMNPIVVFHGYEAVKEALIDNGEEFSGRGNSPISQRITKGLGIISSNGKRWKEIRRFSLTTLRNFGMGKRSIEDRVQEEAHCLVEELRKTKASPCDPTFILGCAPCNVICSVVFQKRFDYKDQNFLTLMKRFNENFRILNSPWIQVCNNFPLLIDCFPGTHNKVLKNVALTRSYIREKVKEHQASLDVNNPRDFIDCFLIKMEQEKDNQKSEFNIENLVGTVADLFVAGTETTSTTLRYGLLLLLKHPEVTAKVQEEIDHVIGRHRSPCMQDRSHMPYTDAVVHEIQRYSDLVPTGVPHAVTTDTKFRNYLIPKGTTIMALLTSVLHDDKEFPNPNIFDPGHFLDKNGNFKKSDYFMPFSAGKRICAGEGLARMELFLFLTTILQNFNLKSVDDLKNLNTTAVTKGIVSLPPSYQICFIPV
T5 sequence (P20813 whole entry): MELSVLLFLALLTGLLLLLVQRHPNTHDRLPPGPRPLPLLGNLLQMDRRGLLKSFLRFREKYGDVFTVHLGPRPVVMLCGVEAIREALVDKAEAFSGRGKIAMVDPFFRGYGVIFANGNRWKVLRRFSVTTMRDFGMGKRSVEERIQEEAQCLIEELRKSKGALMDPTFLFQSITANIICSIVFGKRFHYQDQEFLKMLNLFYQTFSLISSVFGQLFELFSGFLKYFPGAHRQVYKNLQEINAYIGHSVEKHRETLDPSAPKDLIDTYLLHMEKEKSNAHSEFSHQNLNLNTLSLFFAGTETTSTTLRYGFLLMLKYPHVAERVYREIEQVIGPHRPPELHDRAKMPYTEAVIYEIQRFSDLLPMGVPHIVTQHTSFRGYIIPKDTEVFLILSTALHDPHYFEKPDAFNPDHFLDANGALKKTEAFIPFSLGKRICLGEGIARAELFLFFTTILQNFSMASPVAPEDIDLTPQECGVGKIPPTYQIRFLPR

SMILES	IC50 (UGT1A4)	IC50 (UGT1A9)	CYP1A2 mRNA change (CYP1A2 mRNA)	increase in systemic exposure to DPV ([1]; concomitant use of DPV ring and MIC vaginal capsule compared to DPV ring alone)	Cmax ([1]; after DPV ring administration alone)	IC50 (UGT1A3)	CYP2B6 mRNA change (CYP2B6 mRNA)	IC50 (CYP1B1)	IC50 (CYP2B6)	IC50 (UGT1A8)	IC50 (CYP2C8)	IC50 (CYP2C19)	Cmax ([1]; after MIC vaginal capsule alone)	IC50 (UGT1A8; Recombinant UGT1A8, 4-methylumbelliferone O-glucuronidation)	Emax at 45 min (UGT1A8; human, recombinant UGT1A8, probe 4-methylumbelliferone (2 µM), glucuronidation)
Cc1cc(C)c(Nc2ccnc(Nc3ccc(C#N)cc3)n2)c(C)c1 [DPV, Dapivirine]	9.45 µM	> 30 µM	induction in one donor	20%	0.462 ± 0.288 ng/mL	17 µM	inhibition in one donor	1.55 µM	10.1 µM	> 30 µM	1.41 µM	> 30 µM	–	–	–
Clc1ccc(COC(Cn2ccnc2)c2ccc(Cl)cc2Cl)c(Cl)c1 (stereo not shown) [MIC, miconazole]	26.5 µM	> 30 µM	–	–	–	13.6 µM	–	0.47 µM	–	–	–	–	7.61 ± 3.13 ng/mL	Apparent activation with MIC	173%
